Laboratory results published in patent publication US20240118280A1 (priority 2022, published 2024).
“Also recorded” adds a separate entry of the source.

Molecular target: T1, human EGFR kinase (Homo sapiens, UniProt P00533)
T1 construct: The EGFR kinase domain is incubated with Ibrutinib-yne or a DMSO control at 37° C. for 1 hour; made in house
Test: Activity-based protein fingerprinting: covalent labelling of EGFR kinase by chemical probe (PAGE, fluorescent imaging, LC-MS)
Format: binding
Protocol: The EGFR kinase domain is incubated with Ibrutinib-yne or a DMSO control at 37° C. for 1 hour. The EGFR kinase domain bound to Ibrutinib-yne is exposed to cysteine reduction and capping using TCEP and chloroacetamide at 37° C. for 1 hour. The product is desalted with a 7 kDa zeba column and exposed to proteolytic digestion by trypsin at 37° C. for 16 hours. The product is further conjugated with bis-biotin-DNA-SS-azide at room temperature for 30 minutes and finally exposed to DTT at 65° C. for 10 minutes.
FIGS. 5A-5C show LC-MS plots of DMSO control (FIG. 5A), Ibrutinib-yne (FIG. 5B), and Ibrutinib-yne with a DNA control molecule and DTT (FIG. 5C). The blue box represents unmodified peptide, the green box represents peptide bound to Ibrutinib-yne, and the red box represents peptide-Ibrutinib-yne-DNA adduct following disulfide reduction.
Using the steps of Example 1, EGFR kinase was detected using activity-based protein fingerprinting. The commercially available drug analog Ibrutinib-yne, which binds to the catalytic cysteine of EGFR comprises an electrophilic warhead and an alkyne moiety for the CLICK handle processing step. Purified human EGFR kinase was generated (FIG. 2A) and exposed to Ibrutinib-yne (FIG. 2B). […] The target peptide detected by this protocol LLGIC(Alk)[…]) (SEQ ID NO:1) was detected by LC-MS (FIGS. 5A-5C).

Ibrutinib-yne
LC-MS detection of target peptide LLGIC(Alk)[…] (SEQ ID NO:1) (after TCEP/chloroacetamide capping and trypsin digestion, vs DMSO control): detected only in its modified state | probe-EGFR kinase complex observed by Coomassie Blue staining and fluorescent imaging (AF647-azide) (probe or DMSO control incubated with EGFR at 37° C. for 1 hour, PAGE): desired complex was observed; also recorded: only the protein bearing Ibrutinib-yne reacted with AF647-azide
